Source: US9833497B2, “Human originated EGF domain proteins and use of the same” (CHENGDU SOURCEBIO LIMITED-LIABILITY COMPANY, priority 2013, dated 2017)

What was measured:
Assay type in all cases: cell-based
E. coli DH5α = test: Antibacterial activity: MIC and growth curve against E. coli DH5α in 96-well plate; details: minimal inhibitory concentration against E. coli DH5α; 96-well plate, 5×10^5 CFU/mL, 37° C., judged after 8 h
In short: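 Log-phase DH5α (OD600 about 0.5, 37° C, 185 rpm in LB) was pelleted, resuspended in fresh LB and seeded at 5×10^5 CFU/mL with recombinant protein at 50, 25 and 12.5 μg/mL (two-fold series), in triplicate. Plates were shaken at 175 rpm, 37° C, and OD600 was read every 30 min. MIC was the lowest concentration with no growth.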

E. coli BL21 = test: MIC against Gram-negative bacteria: E. coli BL21
In short: (§1)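 The recombinant human-originated EGF domain proteins were serially diluted two-fold against bacteria at 5×10^5 CFU/mL in LB medium. After shaken incubation at 37° C, the lowest concentration with no bacterial growth was recorded as the MIC.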

Pseudomonas aeruginosa = test: MIC against Gram-negative bacteria: Pseudomonas aeruginosa
In short: as §1

Klebsiella pneumonia = test: MIC against Gram-negative bacteria: Klebsiella pneumonia
In short: as §1

Enterobacter cloacae = test: MIC against Gram-negative bacteria: Enterobacter cloacae
In short: as §1

Aeromonas hydrophila = test: MIC against Gram-negative bacteria: Aeromonas hydrophila
In short: as §1

Citrobacter diversus = test: MIC against Gram-negative bacteria: Citrobacter diversus
In short: as §1

Moraxella catarrhalis = test: MIC against Gram-negative bacteria: Moraxella catarrhalis
In short: as §1

Proteus mirabilis = test: MIC against Gram-negative bacteria: Proteus mirabilis
In short: as §1

Proteus vulgaris = test: MIC against Gram-negative bacteria: Proteus vulgaris
In short: as §1

Serratia marcescens = test: MIC against Gram-negative bacteria: Serratia marcescens
In short: as §1

[1] = E. coli BL21, 10 h cultivation at 37° C., 5×10^5 CFU/mL
[2] = P. aeruginosa, 10 h cultivation at 37° C., 5×10^5 CFU/mL
[3] = K. pneumonia, 10 h cultivation at 37° C., 5×10^5 CFU/mL
[4] = E. cloacae, 10 h cultivation at 37° C., 5×10^5 CFU/mL
[5] = A. hydrophila, 10 h cultivation at 37° C., 5×10^5 CFU/mL
[6] = C. diversus, 10 h cultivation at 37° C., 5×10^5 CFU/mL
[7] = M. catarrhalis, 10 h cultivation at 37° C., 5×10^5 CFU/mL
[8] = P. mirabilis, 10 h cultivation at 37° C., 5×10^5 CFU/mL
[9] = P. vulgaris, 10 h cultivation at 37° C., 5×10^5 CFU/mL
[10] = S. marcescens, 10 h cultivation at 37° C., 5×10^5 CFU/mL
[11] = 10 h cultivation at 37° C., 5×10^5 CFU/mL, two-fold serial dilution
[12] = E. coli BL21, 96-well plate, 5×10^5 CFU/mL, 37° C., 10 h
[13] = Pseudomonas aeruginosa, 96-well plate, 5×10^5 CFU/mL, 37° C., 10 h
[14] = Klebsiella pneumonia, 96-well plate, 5×10^5 CFU/mL, 37° C., 10 h
[15] = Enterobacter cloacae, 96-well plate, 5×10^5 CFU/mL, 37° C., 10 h
[16] = Aeromonas hydrophila, 96-well plate, 5×10^5 CFU/mL, 37° C., 10 h
[17] = Citrobacter diversus, 96-well plate, 5×10^5 CFU/mL, 37° C., 10 h
[18] = Moraxella catarrhalis, 96-well plate, 5×10^5 CFU/mL, 37° C., 10 h
[19] = Proteus mirabilis, 96-well plate, 5×10^5 CFU/mL, 37° C., 10 h
[20] = Proteus vulgaris, 96-well plate, 5×10^5 CFU/mL, 37° C., 10 h
[21] = Serratia marcescens, 96-well plate, 5×10^5 CFU/mL, 37° C., 10 h

## PRT158 (PGESHANDLECSGKGKCTTKPSEATFSCTCEEQYVGTFCE; listed as Homo sapiens)
E. coli DH5α
  MIC: 12.5 µg/mL
E. coli BL21; [1]
  MIC (μg/mL) E. coli BL21: 12.5 µg/mL
Pseudomonas aeruginosa; [2]
  MIC (μg/mL) P. aeruginosa: 50 µg/mL
Klebsiella pneumonia; [3]
  MIC (μg/mL) K. pneumonia: 12.5 µg/mL
Enterobacter cloacae; [4]
  MIC (μg/mL) E. cloacae: 50 µg/mL
Aeromonas hydrophila; [5]
  MIC (μg/mL) A. hydrophila: 25 µg/mL
Citrobacter diversus; [6]
  MIC (μg/mL) C. diversus: 12.5 µg/mL
Moraxella catarrhalis; [7]
  MIC (μg/mL) M. catarrhalis: 25 µg/mL
Proteus mirabilis; [8]
  MIC (μg/mL) P. mirabilis: 50 µg/mL
Proteus vulgaris; [9]
  MIC (μg/mL) P. vulgaris: 25 µg/mL
Serratia marcescens; [10]
  MIC (μg/mL) S. marcescens: 12.5 µg/mL

## PRT1089 (ANPCCSHPCQNRGVCMSVGFDQYKCDCTRTGFYGENCS; listed as Homo sapiens)
E. coli DH5α
  MIC: 50 µg/mL
E. coli BL21; [11]
  MIC E. coli BL21: 25 µg/mL
Pseudomonas aeruginosa; [11]
  MIC P. aeruginosa: 50 µg/mL
Klebsiella pneumonia; [11]
  MIC K. pneumonia: 25 µg/mL
Enterobacter cloacae; [11]
  MIC E. cloacae: 12.5 µg/mL
Aeromonas hydrophila; [11]
  MIC A. hydrophila: 50 µg/mL
Citrobacter diversus; [11]
  MIC C. diversus: 25 µg/mL
Moraxella catarrhalis; [11]
  MIC M. catarrhalis: 12.5 µg/mL
Proteus mirabilis; [11]
  MIC P. mirabilis: 25 µg/mL
Proteus vulgaris; [11]
  MIC P. vulgaris: 50 µg/mL
Serratia marcescens; [11]
  MIC S. marcescens: 25 µg/mL

## PRT1363 (SEKRCPADCHNRGRCVDGRCECDDGFTGADCG; listed as Homo sapiens)
E. coli DH5α
  MIC: 12.5 µg/mL
E. coli BL21; E. coli BL21, 5×10^5 CFU/mL, 10 h cultivation at 37° C.
  MIC against E. coli BL21: 12.5 µg/mL
Pseudomonas aeruginosa; Pseudomonas aeruginosa, 5×10^5 CFU/mL, 10 h cultivation at 37° C.
  MIC against P. aeruginosa: 12.5 µg/mL
Klebsiella pneumonia; Klebsiella pneumonia, 5×10^5 CFU/mL, 10 h cultivation at 37° C.
  MIC against K. pneumonia: 12.5 µg/mL
Enterobacter cloacae; Enterobacter cloacae, 5×10^5 CFU/mL, 10 h cultivation at 37° C.
  MIC against E. cloacae: 50 µg/mL
Aeromonas hydrophila; Aeromonas hydrophila, 5×10^5 CFU/mL, 10 h cultivation at 37° C.
  MIC against A. hydrophila: 12.5 µg/mL
Citrobacter diversus; Citrobacter diversus, 5×10^5 CFU/mL, 10 h cultivation at 37° C.
  MIC against C. diversus: 25 µg/mL
Moraxella catarrhalis; Moraxella catarrhalis, 5×10^5 CFU/mL, 10 h cultivation at 37° C.
  MIC against M. catarrhalis: 50 µg/mL
Proteus mirabilis; Proteus mirabilis, 5×10^5 CFU/mL, 10 h cultivation at 37° C.
  MIC against P. mirabilis: 25 µg/mL
Proteus vulgaris; Proteus vulgaris, 5×10^5 CFU/mL, 10 h cultivation at 37° C.
  MIC against P. vulgaris: 12.5 µg/mL
Serratia marcescens; Serratia marcescens, 5×10^5 CFU/mL, 10 h cultivation at 37° C.
  MIC against S. marcescens: 50 µg/mL

## PRT827 (HLECSCHNNSTCEPATGTCRCGPGFYGQACE; listed as Homo sapiens)
E. coli DH5α
  MIC: 12.5 µg/mL
E. coli BL21; [1]
  MIC (μg/mL) E. coli BL21: 25 µg/mL
Pseudomonas aeruginosa; [2]
  MIC (μg/mL) P. aeruginosa: 12.5 µg/mL
Klebsiella pneumonia; [3]
  MIC (μg/mL) K. pneumonia: 12.5 µg/mL
Enterobacter cloacae; [4]
  MIC (μg/mL) E. cloacae: 50 µg/mL
Aeromonas hydrophila; [5]
  MIC (μg/mL) A. hydrophila: 25 µg/mL
Citrobacter diversus; [6]
  MIC (μg/mL) C. diversus: 12.5 µg/mL
Moraxella catarrhalis; [7]
  MIC (μg/mL) M. catarrhalis: 25 µg/mL
Proteus mirabilis; [8]
  MIC (μg/mL) P. mirabilis: 50 µg/mL
Proteus vulgaris; [9]
  MIC (μg/mL) P. vulgaris: 12.5 µg/mL
Serratia marcescens; [10]
  MIC (μg/mL) S. marcescens: 50 µg/mL

## PRT944 (TSHPCFVSRPCLNGGTCHMLSRDTYECTCQVGFTGKECQ; listed as Homo sapiens)
E. coli DH5α
  MIC: 12.5 µg/mL
E. coli BL21; E. coli BL21, 10 h cultivation at 37° C.
  MIC: 25 µg/mL
Pseudomonas aeruginosa; P. aeruginosa, 10 h cultivation at 37° C.
  MIC: 50 µg/mL
Klebsiella pneumonia; K. pneumonia, 10 h cultivation at 37° C.
  MIC: 100 µg/mL
Enterobacter cloacae; E. cloacae, 10 h cultivation at 37° C.
  MIC: 50 µg/mL
Aeromonas hydrophila; A. hydrophila, 10 h cultivation at 37° C.
  MIC: 12.5 µg/mL
Citrobacter diversus; C. diversus, 10 h cultivation at 37° C.
  MIC: 50 µg/mL
Moraxella catarrhalis; M. catarrhalis, 10 h cultivation at 37° C.
  MIC: 12.5 µg/mL
Proteus mirabilis; P. mirabilis, 10 h cultivation at 37° C.
  MIC: 25 µg/mL
Proteus vulgaris; P. vulgaris, 10 h cultivation at 37° C.
  MIC: 50 µg/mL
Serratia marcescens; S. marcescens, 10 h cultivation at 37° C.
  MIC: 12.5 µg/mL

## PRT27 (NACASGPCPPHADCRDLWQTFSCTCQPGYYGPGCV; listed as Homo sapiens)
E. coli DH5α
  MIC: 12.5 µg/mL
E. coli BL21; [12]
  MIC (μg/mL) E. coli BL21: 25 µg/mL
Pseudomonas aeruginosa; [13]
  MIC (μg/mL) P. aeruginosa: 50 µg/mL
Klebsiella pneumonia; [14]
  MIC (μg/mL) K. pneumonia: 25 µg/mL
Enterobacter cloacae; [15]
  MIC (μg/mL) E. cloacae: 12.5 µg/mL
Aeromonas hydrophila; [16]
  MIC (μg/mL) A. hydrophila: 25 µg/mL
Citrobacter diversus; [17]
  MIC (μg/mL) C. diversus: 50 µg/mL
Moraxella catarrhalis; [18]
  MIC (μg/mL) M. catarrhalis: 12.5 µg/mL
Proteus mirabilis; [19]
  MIC (μg/mL) P. mirabilis: 25 µg/mL
Proteus vulgaris; [20]
  MIC (μg/mL) P. vulgaris: 50 µg/mL
Serratia marcescens; [21]
  MIC (μg/mL) S. marcescens: 100 µg/mL

## PRT1198 (EHDECGSGQHNCDENAICTNTVQGHSCTCKPGYVGNGTICR; listed as Homo sapiens)
E. coli DH5α
  MIC: 25 µg/mL
E. coli BL21; [12]
  MIC against E. coli BL21: 12.5 µg/mL
Pseudomonas aeruginosa; [13]
  MIC against P. aeruginosa: 25 µg/mL
Klebsiella pneumonia; [14]
  MIC against K. pneumonia: 50 µg/mL
Enterobacter cloacae; [15]
  MIC against E. cloacae: 12.5 µg/mL
Aeromonas hydrophila; [16]
  MIC against A. hydrophila: 50 µg/mL
Citrobacter diversus; [17]
  MIC against C. diversus: 25 µg/mL
Moraxella catarrhalis; [18]
  MIC against M. catarrhalis: 12.5 µg/mL
Proteus mirabilis; [19]
  MIC against P. mirabilis: 50 µg/mL
Proteus vulgaris; [20]
  MIC against P. vulgaris: 25 µg/mL
Serratia marcescens; [21]
  MIC against S. marcescens: 12.5 µg/mL
